Source: ChEMBL document CHEMBL5375997, “Small Molecule Inhibitors Targeting the "Undruggable" Survivin: The Past, Present, and Future from a Medicinal Chemist's Perspective” (J Med Chem, 2023)

Key:
[1] = system: SW-620; assay: Antiproliferative activity against human SW620 cells assessed as reduction in cell viability incubated for 72 hrs by MTT assay; type: functional, cell-based; settings: SW-620, 72 h
[2] = system: EKVX; assay: Antiproliferative activity against human EKVX cells assessed as cell growth inhibition incubated for 72 hrs by MTT assay; type: functional, cell-based
[3] = AUC in mouse plasma at 3 mg/kg, iv measured upto 24 hrs by LC-MS/MS analysis; type: ADME, organism-based; set-up: dose 3 mg/kg, time < 24 hrs, route iv; settings: in vivo
[4] = Clearance in […] at 3 mg/kg, iv incubated for 24 hrs by LC-MS/MS analysis; type: ADME, organism-based; settings: in vivo
[5] = system: NCI-H460; assay: Antiproliferative activity against human NCI-H460 cells assessed as reduction in cell viability incubated for 24 hrs by MTT assay; type: functional, cell-based; settings: NCI-H460, 24 h
[6] = Cmax in […] at 1 mg/kg, iv and measured upto 24 hrs by LC/MS/MS analysis; type: ADME, organism-based; set-up: time < 24 hrs, dose 1 mg/kg, route iv; settings: in vivo
[7] = system: HCT-8; assay: Antiproliferative activity against human HCT-8 cells assessed as inhibition of cell growth; type: functional, cell-based
[8] = Half life in CD1 mouse at 1 mg/kg, iv by LC-MS/MS analysis; type: ADME, organism-based; settings: in vivo
[9] = system: HCT-116; assay: Antiproliferative activity against human HCT-116 cells assessed as reduction in cell proliferation measured after 72 hrs by MTT assay; type: functional, cell-based; settings: HCT-116, 72 h
[10] = system: A549; assay: Antiproliferative activity against human A549 cells assessed as reduction in cell viability by MTT assay; type: functional, cell-based
[11] = system: MDA-MB-231; assay: Cytotoxicity against human MDA-MB-231 cells assessed as inhibition of cell growth incubated for 72 hrs by SRB assay; type: functional, cell-based; settings: MDA-MB-231, 72 h
[12] = system: HepG2; assay: Cytotoxicity against human HepG2 cells assessed as reduction in cell viability incubated for 72 hrs by SRB assay; type: functional, cell-based; settings: HepG2, 72 h
[13] = system: PC-3; assay: Cytotoxicity against human PC-3 cells assessed as reduction in cell growth incubated for 72 hrs by SRB assay; type: functional, cell-based; settings: PC-3, 72 h
[14] = system: NCI-H69; assay: Antiproliferative activity against human NCI-H69 cells assessed as reduction in cell growth; type: functional, cell-based
[15] = system: PC-3; assay: Cytotoxicity against human PC-3 cells assessed as inhibition of cell growth; type: functional, cell-based
[16] = system: DU-145; assay: Cytotoxicity against human DU-145 cells assessed as inhibition of cell growth; type: functional, cell-based
[17] = system: M14; assay: Antiproliferative activity against human M14 cells assessed as inhibition of cell growth measured after 48 hrs by SRB assay; type: functional, cell-based; settings: M14, 48 h
[18] = system: A-375; assay: Cytotoxicity against human A-375 cells assessed as inhibition of cell growth; type: functional, cell-based
[19] = system: M14; assay: Antiproliferative activity against human M14 cells assessed as reduction cell viability incubated for 48 hrs by MTT assay; type: functional, cell-based; settings: M14, 48 h
[20] = system: GBM528 (human); assay: Antiproliferative activity against human GBM528 cells assessed as sphere formation inhibition
[21] = system: PC-3; assay: Cytotoxicity against human PC-3 cells assessed as reduction in cell viability incubated for 24 hrs by MTT assay; settings: PC-3, 24 h
[22] = system: DU-145; assay: cells; settings: Homo sapiens, DU-145, 24 h
Description: Cytotoxicity against human DU-145 cells assessed as inhibition of cell growth incubated for 24 hrs by MTT assay

[23] = system: LNCaP C4-2; assay: Cytotoxicity against human LNCaP C4-2 cells assessed as cell growth inhibition incubated for 24 hrs by MTT assay; type: functional, cell-based; settings: LNCaP C4-2, 24 h
[24] = system: LNCaP C4-2; assay: Antiproliferative activity against human LNCaP C4-2 cells assessed as cell growth inhibition; type: functional, cell-based
[25] = system: PC-3; assay: Anticancer activity against human PC-3 cells assessed as cell growth inhibition by sulforhodamine B assay; type: functional, cell-based
[26] = Cytotoxicity against human HepG2 cells assessed as reduction in cell viability by MTT assay; type: functional, cell-based
[27] = system: A549; assay: Cytotoxicity against human A549 cells assessed as reduction in cell viability by MTT assay; type: functional, cell-based
[28] = system: HeLa; assay: Cytotoxicity against human HeLa cells assessed as inhibition of cell growth by MTT assay; type: functional, cell-based
[29] = system: HCT-116; assay: Cytotoxicity against human HCT-116 cells assessed as reduction in cell viability by MTT assay; type: functional, cell-based
[30] = system: MCF7; assay: Cytotoxicity against human MCF7 cells assessed as inhibition of cell growth by MTT assay; type: functional, cell-based
[31] = Tmax in human plasma at 10 mg/kg, iv measured after 24 hrs; type: ADME, organism-based
[32] = system: A-375; assay: Anticancer activity against human A375 cells assessed as reduction in cell viability incubated for 72 hrs by MTT assay; type: functional, cell-based; settings: A-375, 72 h
[33] = system: CWR22R; assay: Cytotoxicity against human 22Rv1 cells assessed as cell growth inhibition; type: functional, cell-based
[34] = Half life in human plasma after iv dosing; settings: in vivo
[35] = Half life in iv dosed human plasma; type: ADME, organism-based
[36] = system: DU-145; assay: Cytotoxicity against human DU-145 cells assessed as reduction in cell viability by SRB assay; type: functional, cell-based
[37] = system: SK-MEL-5; assay: Antiproliferative activity against human SK-MEL-5 cells assessed as reduction in cell viability; type: functional, cell-based
[38] = Cytotoxicity against human HaCaT cells assessed as reduction in cell viability; type: toxicity, cell-based
[39] = Cmax in […] at 1 mg/kg, po and measured upto 24 hrs by LC/MS/MS analysis; type: ADME, organism-based; set-up: time < 24 hrs, dose 1 mg/kg, route po; settings: in vivo
[40] = Oral bioavailability in mouse plasma; type: ADME, organism-based
[41] = system: EL4; assay: Cytotoxicity against mouse EL4 cells assessed as inhibition of cell proliferation incubated for 72 hrs by MTT assay; type: functional, cell-based; settings: EL4, 72 h
[42] = system: L1210; assay: Antiproliferative activity against mouse L1210 cells assessed as reduction in cell viability incubated for 48 hrs by MTT assay; type: functional, cell-based; settings: L1210, 48 h

## CC[C@@]1(O)C(=O)OCc2c1cc1n(c2=O)Cc2cc3cc4c(cc3nc2-1)OCO4
[1]
  IC50: 0.009 µM
[2]
  IC50: 0.006 µM
[3]
  AUC: 82 ng·h/mL
[4]
  clearance: 900 mL/min/kg
[5]
  IC50: 0.003 µM
[6]
  Cmax: 43 ng/mL
[7]
  IC50: 0.005 µM
[8]
  half-life: 1.8 h
[9]
  IC50: 0.005 µM
[10]
  IC50: 0.009 µM

## N#Cc1c(-c2ccc(Cl)cc2)cc(-c2ccc(OCc3ccc(F)cc3)cc2)[nH]c1=O
[11]
  IC50: 14.4 µM
[12]
  IC50: 14.4 µM
[13]
  IC50: 14.4 µM

## Oc1cc(CCCCc2cc(O)c(O)c(O)c2)cc(O)c1O
[14]
  IC50: 6 µM

## Oc1c(CN2CCCC2)cc(COCc2ccccc2)c2cccnc12
[15]
  IC50: 0.7 µM
[16]
  IC50: 3.4 µM
[17]
  IC50: 3.2 µM
[18]
  IC50: 1.6 µM
[19]
  IC50: 2.5 µM

## N#Cc1c(-c2ccc(Cl)cc2)cc(-c2ccc(OCc3ccc(F)cc3)cc2)[nH]c1=S
[11]
  IC50: 23 µM
[12]
  IC50: 23 µM
[13]
  IC50: 23 µM

## N#Cc1c(-c2ccc(Br)cc2)cc(-c2ccc(OCc3ccc(F)cc3)cc2)[nH]c1=O
[11]
  IC50: 14.4 µM
[12]
  IC50: 14.4 µM
[13]
  IC50: 14.4 µM

## N#Cc1c(-c2ccccc2)cc(-c2ccc(OCc3ccc(F)cc3)cc2)[nH]c1=O
[11]
  IC50: 14.4 µM
[12]
  IC50: 14.4 µM
[13]
  IC50: 14.4 µM

## N#Cc1c(-c2cc(OCc3ccccc3)cc(OCc3ccccc3)c2)cc(-c2cc(Cl)ccc2O)[nH]c1=O
[20]
  IC50: 31.2 µM

## Cc1cccc(Nc2nc3nonc3nc2N/N=C/c2cc3c(cc2[N+](=O)[O-])OCO3)c1C
[21]
  IC50: 2.1 µM
[22]
  IC50: 2.6 µM

## Nc1nonc1C(=O)N/N=C1\c2ccccc2-c2nc3nonc3nc21
[23]
  IC50: 1.9 µM
[21]
  IC50: 4.3 µM
[24]
  IC50: 1.9 µM
[25]
  IC50: 4.3 µM

## N#Cc1c(-c2ccc(Cl)cc2)cc(-c2ccc(OCc3ccc(F)cc3)cc2)nc1N
[11]
  IC50: > 100 µM
[12]
  IC50: > 100 µM
[13]
  IC50: > 100 µM

## Cc1ccc(-c2ccc(/C=N/Nc3nc4nonc4nc3Nc3ccc(Br)cc3)o2)cc1Cl
[21]
  IC50: 3.5 µM
[22]
  IC50: 3.3 µM

## Oc1ccc(CCCCCc2ccc(O)c(O)c2)cc1O
[14]
  IC50: 3 µM

## Oc1ccc(CCCc2ccc(O)c(O)c2)cc1O
[14]
  IC50: > 100 µM

## COc1cccc(Nc2nc3ccccc3nc2Nc2cccc(OC)c2OC)c1OC
[23]
  IC50: 17.6 µM
[21]
  IC50: 24.8 µM

## O=C1N=c2ccc(Nc3nc4nonc4nc3N/N=C/c3ccccc3OCc3ccc(Cl)cc3Cl)cc2=N1
[21]
  IC50: 49.8 µM
[22]
  IC50: 60.3 µM

## N#Cc1c(-c2ccc(F)cc2)cc(-c2ccc(OCc3ccc(F)cc3)cc2)[nH]c1=S
[11]
  IC50: 23 µM
[12]
  IC50: 23 µM
[13]
  IC50: 23 µM

## N#Cc1c(-c2ccc(F)cc2)cc(-c2ccc(OCc3ccc(F)cc3)cc2)[nH]c1=O
[11]
  IC50: 14.4 µM
[12]
  IC50: 14.4 µM
[13]
  IC50: 14.4 µM

## CC[C@@]1(O)C(=O)OCc2c1cc1n(c2=O)Cc2cc3c(-c4ccc(C(F)(F)F)cc4)c4c(cc3nc2-1)OCO4
[26]
  IC50: 0.78 µM
[27]
  IC50: 0.78 µM
[28]
  IC50: 0.78 µM
[29]
  IC50: 0.78 µM
[30]
  IC50: 0.78 µM

## COc1ccc(-c2cc(-c3ccc(OCc4ccc(F)cc4)cc3)[nH]c(=O)c2C#N)cc1
[11]
  IC50: 3.59 µM
[12]
  IC50: 6.01 µM
[13]
  IC50: 4.46 µM

## Cc1cccc(Nc2nc3nonc3nc2N/N=C/c2ccc(-c3cccc(C(=O)O)c3)o2)c1C
[21]
  IC50: 20 µM
[22]
  IC50: 25 µM

## COc1ccc(-c2cc(-c3ccc(OCc4ccc(F)cc4)cc3)[nH]c(=S)c2C#N)cc1
[11]
  IC50: 23 µM
[12]
  IC50: 23 µM
[13]
  IC50: 23 µM

## COCCn1c2c([n+](Cc3cnccn3)c1C)C(=O)c1ccccc1C2=O.[Br-] [SEPANTRONIUM BROMIDE]
[31]
  Tmax: 46 h
[32]
  IC50: 0.006 µM
[33]
  IC50: 0.011 µM
[34]
  half-life: 17.2 h
[3]
  AUC: 1440 ng·h/mL
[4]
  clearance: 795 mL/min/kg
[35]
  half-life: 26.3 h
[36]
  IC50: 0.004 µM
[6]
  Cmax: 10.7 ng/mL
[37]
  IC50: 0.004 µM

## N#Cc1c(-c2ccccc2)cc(-c2ccc(OCc3ccc(F)cc3)cc2)[nH]c1=S
[11]
  IC50: 23 µM
[12]
  IC50: 23 µM
[13]
  IC50: 23 µM

## Cc1cccc(Nc2nc3nonc3nc2N/N=C/c2ccc(-c3ccc(Cl)c([N+](=O)[O-])c3)o2)c1C
[21]
  IC50: 4.8 µM
[22]
  IC50: 7.2 µM

## COc1ccc(C[C@@H](C)[C@@H](C)Cc2ccc(OC)c(OC)c2)cc1OC [TERAMEPROCOL]
[38]
  IC50: 85 µM
[3]
  AUC: 2980 ng·h/mL
[39]
  Cmax: 442 ng/mL
[40]
  bioavailability: 88.3%
[6]
  Cmax: 1060 ng/mL

## CO[C@]12CC(=O)O[C@]13C(=O)c1c(cc4cc(O)c5c(c4c1O)CN(C)C5=O)C(=O)[C@]3(O[C@H]1CC[C@H](O)[C@H](C)O1)CO2
[41]
  IC50: 0.112 µM
[42]
  IC50: 0.153 µM

## N#Cc1c(-c2ccccc2)cc(-c2ccc(OCc3ccc(F)cc3)cc2)nc1N
[11]
  IC50: > 100 µM
[12]
  IC50: > 100 µM
[13]
  IC50: > 100 µM

## CCOC(=O)c1ccc(Nc2nc3nonc3nc2N/N=C/c2c[nH]nc2-c2ccccc2)cc1
[22]
  IC50: 3.5 µM

## N#Cc1c(-c2ccc(Br)cc2)cc(-c2ccc(OCc3ccc(F)cc3)cc2)[nH]c1=S
[11]
  IC50: 23 µM
[12]
  IC50: 23 µM
[13]
  IC50: 23 µM

## COc1ccc(-c2cc(-c3ccc(OCc4ccc(F)cc4)cc3)nc(N)c2C#N)cc1
[11]
  IC50: > 100 µM
[12]
  IC50: > 100 µM
[13]
  IC50: > 100 µM

## N#Cc1c(-c2ccc(Br)cc2)cc(-c2ccc(OCc3ccc(F)cc3)cc2)nc1N
[11]
  IC50: 30 µM
[12]
  IC50: 30 µM
[13]
  IC50: 30 µM

## Oc1ccc(CCCCc2ccc(O)cc2)cc1
[14]
  IC50: 3.9 µM
